Measurements: patent US11560374B2, “Morpholinylpyridone compounds” (Sprint Bioscience AB, priority 2017, dated 2023)

Legend:
Vps34 enzyme = Vps34 enzyme (Homo sapiens (Human), UniProt Q8NEB9); experiment: Vps34 Biochemical Assay (Adapta kinase assay); settings: 20 μM ATP and 200 μM PI:PS substrate mix, 1 h at room temperature, TR-FRET, read-out: Median IC50 nM Adapta
Experimental: Dilution series of compounds of the invention were prepared in DMSO at 100 times the final assay concentration (n1=n0/3 in 10 points). The compounds were further diluted to 4 times the assay concentration in assay buffer (Life technologies buffer Q, PV5125, diluted 5 times supplemented with 2 mM DTT and 2 mM MnCl2). 2.5 μl of the diluted compounds were added to a 384 well assay plate followed by 2.5 μl of 16.5 nM Vps34 enzyme (Life technologies, PV5126). Enzyme and compounds were pre-incubated at rt for 15 min. Then 5 μl of substrate mix containing 20 μM ATP (Life technologies, PV3227) and 200 μM PI:PS substrate (Life technologies, PV5122) in assay buffer was added to the wells containing compound and enzyme. Mixing was performed by pipetting several times. The reaction was incubated at room temperature for 1 h. Then 5 μl stop-detection mix, prepared as described in the Adapta kinase assay kit instructions (Life technologies, PV5099) containing Adapta Eu-anti-ADP antibody (2.3 nM), Alexa Fluor 647 ADP tracer (9 nM) and EDTA (30 mM) in TR-FRET buffer, was added to quench the reaction. Mixing was performed by pipetting several times. The assay plate was then incubated at room temperature for 30 min and read with Artemis micro plate reader. Percent inhibition of the compounds as compared to DMSO treated control samples was calculated. By the use of Dotmatics software compound concentration versus percent inhibition was fitted to generate IC50 values.

[1] = tested on: autophagy in HOS cells (GFP-LC3); experiment: High Content Screening Autophagy Assay (GFP-LC3 foci); format: cell-based; settings: Homo sapiens; HOS cells expressing GFP-LC3; autophagy activated with KU-0063794 500 nM and Bafilomycin A1 5 nM; 6 hours; foci area per cell; read-out: Median IC50 nM Cellular assay (HOS-LC3)
Experimental: Human osteosarcoma cells (HOS) stably expressing a Green Fluorescent Protein (GFP) tagged LC3 (GFP-LC3) were used to determine the inhibitory effect on autophagy of proprietary compounds. For that purpose, autophagy was activated by using the mTOR inhibitor KU-0063794 at 500 nM in the presence of Bafilomycin A1 (Sigma-Aldrich) at 5 nM. Shortly, cells were plated overnight in clear bottom 96-well plates in DMEM-High Modified media (Hi-Clone Cat #SH30285.01). At the start of the experiment, the media was removed and replaced with fresh media containing the mTOR inhibitor, Bafilomycin A1 and the vehicle or a test compound as indicated. After 6 hours the media was removed, cells were washed twice with ice-cold phosphate buffered saline (PBS) and fixed with 4% paraformaldehyde for 20 minutes at room temperature. Then the cells were washed twice with ice-cold PBS before adding Hoechst 33342 at 1 μg/ml in PBS for nuclear staining. After incubation overnight at 4° C., cells were washed once with PBS to remove the excess of dye and 100 μl of PBS was added to each well. Images were acquired at 20× magnification, 6 images per well, using the ImageXpress automated microscope (Molecular Devices Inc.) and analyzed with MetaXpress software to identify LC3-GFP foci. Foci area per cell values were used to generate dose response curves and IC50 values were calculated using the non-linear fitting analysis in GraphPad Prism software. […] The results of the assay are shown in Table 2 (Median IC50 nM HOS-LC3).

Vps34 enzyme, sequence (Q8NEB9 whole entry): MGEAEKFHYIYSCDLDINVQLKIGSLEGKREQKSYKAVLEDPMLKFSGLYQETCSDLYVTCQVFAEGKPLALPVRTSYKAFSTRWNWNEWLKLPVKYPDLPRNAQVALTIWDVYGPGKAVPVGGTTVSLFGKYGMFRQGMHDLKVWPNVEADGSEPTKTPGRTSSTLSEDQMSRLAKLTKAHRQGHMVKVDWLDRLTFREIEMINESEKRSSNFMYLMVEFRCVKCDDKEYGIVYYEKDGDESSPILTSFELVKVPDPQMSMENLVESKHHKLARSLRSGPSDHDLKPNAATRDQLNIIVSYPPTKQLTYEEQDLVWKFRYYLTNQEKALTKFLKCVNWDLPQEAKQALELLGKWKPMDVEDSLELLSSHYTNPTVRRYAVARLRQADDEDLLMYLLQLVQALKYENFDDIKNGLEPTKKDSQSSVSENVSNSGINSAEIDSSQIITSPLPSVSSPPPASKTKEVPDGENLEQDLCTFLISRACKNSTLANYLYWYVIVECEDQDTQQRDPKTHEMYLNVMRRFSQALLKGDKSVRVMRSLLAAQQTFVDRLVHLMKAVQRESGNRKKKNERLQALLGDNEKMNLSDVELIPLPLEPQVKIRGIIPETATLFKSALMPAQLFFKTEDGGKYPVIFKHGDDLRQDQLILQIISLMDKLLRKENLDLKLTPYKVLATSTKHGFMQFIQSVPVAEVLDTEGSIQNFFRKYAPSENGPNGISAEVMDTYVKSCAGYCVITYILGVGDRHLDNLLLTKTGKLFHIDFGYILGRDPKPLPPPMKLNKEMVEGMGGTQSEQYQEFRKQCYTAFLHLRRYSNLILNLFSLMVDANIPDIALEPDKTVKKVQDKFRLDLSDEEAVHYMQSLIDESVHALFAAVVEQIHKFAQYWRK

SMILES | IC50 (Vps34 enzyme) | IC50 [1]
C[C@@H]1COCCN1c1cc(N2CCN(S(C)(=O)=O)CC2C(F)(F)F)[nH]c(=O)c1 (single isomer, unassigned) [Example 6-1] | < 5 nM | 33 nM
C[C@@H]1COCCN1c1cc(N2CCN(S(C)(=O)=O)CC2C(F)(F)F)[nH]c(=O)c1 (single isomer, unassigned) [Example 6-2] | 15 nM | 
C[C@@H]1COCCN1c1cc(N2CCN(S(=O)(=O)Cc3ccc(F)cc3)CC2C(F)(F)F)[nH]c(=O)c1 (stereo partly drawn) [Example 8, 6-[4-[(4-Fluorophenyl)methylsulfonyl]-2-(trifluoromethyl)piperazin-1-yl]-4-[(3R)-3-methylmorpholin-4-yl]-1H-pyridin-2-one] | < 5 nM | 12 nM
C[C@@H]1COCCN1c1cc(N2CCN(S(=O)(=O)c3cncc(F)c3)CC2C(F)(F)F)[nH]c(=O)c1 (stereo partly drawn) [Example 10, 6-[4-[(5-Fluoro-3-pyridyl)sulfonyl]-2-(trifluoromethyl)piperazin-1-yl]-4-[(3R)-3-methylmorpholin-4-yl]-1H-pyridin-2-one] | < 5 nM | 106 nM
C[C@@H]1COCCN1c1cc(N2CCN(S(=O)(=O)C3CCOC3)CC2C(F)(F)F)[nH]c(=O)c1 (stereo partly drawn) [Example 12, 4-[(3R)-3-methylmorpholin-4-yl]-6-[4-tetrahydrofuran-3-ylsulfonyl-2-(trifluoromethyl)piperazin-1-yl]-1H-pyridin-2-one] | < 5 nM | 55 nM
C[C@@H]1COCCN1c1cc(N2CCN(S(=O)(=O)N3CCCC3)CC2C(F)(F)F)[nH]c(=O)c1 (stereo partly drawn) [Example 14, 4-[(3R)-3-methylmorpholin-4-yl]-6-[4-pyrrolidin-1-ylsulfonyl-2-(trifluoromethyl)piperazin-1-yl]-1H-pyridin-2-one] | < 5 nM | 
C[C@@H]1COCCN1c1cc(N2CCN(S(=O)(=O)N(C)C)CC2C(F)(F)F)[nH]c(=O)c1 (stereo partly drawn) [Example 16, N,N-dimethyl-4-[4-[(3R)-3-methylmorpholin-4-yl]-6-oxo-1H-pyridin-2-yl]-3-(trifluoromethyl)piperazine-1-sulfonamide] | < 5 nM | 17 nM
COCCS(=O)(=O)N1CCN(c2cc(N3CCOC[C@H]3C)cc(=O)[nH]2)C(C(F)(F)F)C1 (stereo partly drawn) [Example 18, 6-[4-(2-Methoxyethylsulfonyl)-2-(trifluoromethyl)piperazin-1-yl]-4-[(3R)-3-methylmorpholin-4-yl]-1H-pyridin-2-one] | < 5 nM | 83 nM
C[C@@H]1COCCN1c1cc(N2CCN(S(=O)(=O)c3ccc(F)cc3)CC2C(F)(F)F)[nH]c(=O)c1 (stereo partly drawn) [Example 20, 6-[4-(4-Fluorophenyl)sulfonyl-2-(trifluoromethyl)piperazin-1-yl]-4-[(3R)-3-methylmorpholin-4-yl]-1H-pyridin-2-one] | < 5 nM | 223 nM
C[C@@H]1COCCN1c1cc(N2CCN(S(=O)(=O)c3ccnn3C)CC2C(F)(F)F)[nH]c(=O)c1 (stereo partly drawn) [Example 22, 4-[(3R)-3-methylmorpholin-4-yl]-6-[4-(2-methylpyrazol-3-yl)sulfonyl-2-(trifluoromethyl)piperazin-1-yl]-1H-pyridin-2-one] |  | 95 nM
C[C@@H]1COCCN1c1cc(N2CCN(S(=O)(=O)C3CC3)CC2C(F)(F)F)[nH]c(=O)c1 (stereo partly drawn) [Example 24, 6-[4-Cyclopropylsulfonyl-2-(trifluoromethyl)piperazin-1-yl]-4-[(3R)-3-methylmorpholin-4-yl]-1H-pyridin-2-one] |  | 28 nM
C[C@@H]1COCCN1c1cc(N2CCN(S(=O)(=O)N3CCCCC3)CC2C(F)(F)F)[nH]c(=O)c1 (stereo partly drawn) [Example 26, 4-[(3R)-3-methylmorpholin-4-yl]-6-[4-(1-piperidylsulfonyl)-2-(trifluoromethyl)piperazin-1-yl]-1H-pyridin-2-one] | < 5 nM | 139 nM
C[C@@H]1COCCN1c1cc(N2CCN(S(=O)(=O)N3CCOCC3)CC2C(F)(F)F)[nH]c(=O)c1 (stereo partly drawn) [Example 28, 4-[(3R)-3-methylmorpholin-4-yl]-6-[4-morpholinosulfonyl-2-(trifluoromethyl)piperazin-1-yl]-1H-pyridin-2-one] |  | 248 nM
Cc1nc(S(=O)(=O)N2CCN(c3cc(N4CCOC[C@H]4C)cc(=O)[nH]3)C(C(F)(F)F)C2)cn1C (stereo partly drawn) [Example 30, 6-[4-(1,2-Dimethylimidazol-4-yl)sulfonyl-2-(trifluoromethyl)piperazin-1-yl]-4-[(3R)-3-methylmorpholin-4-yl]-1H-pyridin-2-one] | < 5 nM | 84 nM
C[C@@H]1COCCN1c1cc(N2CCN(S(=O)(=O)C3(C)CC3)CC2C(F)(F)F)[nH]c(=O)c1 (stereo partly drawn) [Example 31, 6-[4-(1-methylcyclopropyl)sulfonyl-2-(trifluoromethyl)piperazin-1-yl]-4-[(3R)-3-methylmorpholin-4-yl]-1H-pyridin-2-one] | < 5 nM | 
C[C@@H]1COCCN1c1cc(-c2ccc(S(C)(=O)=O)cc2C(F)(F)F)[nH]c(=O)c1 [Example 33, 4-[(3R)-3-methylmorpholin-4-yl]-6-[4-methylsulfonyl-2-(trifluoromethyl)phenyl]-1H-pyridin-2-one] | < 5 nM | 491 nM
C[C@@H]1COCCN1c1cc(-c2ccc(S(=O)(=O)N(C)C)cc2C(F)(F)F)[nH]c(=O)c1 [Example 35, N,N-dimethyl-4-[4-[(3R)-3-methylmorpholin-4-yl]-6-oxo-1H-pyridin-2-yl]-3-(trifluoromethyl)benzenesulfonamide] | < 5 nM | 458 nM
